Measured values taken from US20060148714A1, “Therapeutic peptide-based constructs” (priority 1999, published 2006).
≈ marks a conversion by molar mass, not a printed value. Where a SMILES comes first, the peptide text is derived from it. Where no end group is shown, it is not given here. [ ]: non-standard residue; d: D form. The star is where a group is joined. 2‑biphenylenecarbonyl = O=C(c1ccc2c(c1)-c1ccccc1-2)*; Acetyl(2-naphthyl) = O=C(Cc1ccc2ccccc2c1)*; d1Nal = N[C@H](Cc1cccc2ccccc12)C(=O)O

What was measured:
[1] = system: Factor Xa neutralization by ATIII/heparin complexes; test: Chromostrate heparin anti-Factor Xa assay (heparin neutralization); format: biochemical; conditions: absorbance at 405 nm
Procedure: A Chromostrate™ assay was used to determine the effect of peptide-based constructs, including derivatized constructs, and the effect protamine sulfate (as a positive control) on Factor Xa neutralization by ATIII/heparin complexes. The assay was conducted using a Chromostrate™ heparin anti-Factor Xa assay kit (Organon Teknika Corp., Durham, N.C.). Heparin concentration was varied so that a heparin standard curve was generated. The assay measured the potentiating effect of heparin on anti-Xa activity in vitro. Solution containing heparin is incubated in the presence of ATIII with an excess of Factor Xa, forming an ATIII-Heparin-Xa complex. The remaining Xa catalyzes the release of p-nitroaniline (pNA) from the chromogenic substrate. The release of p-nitroaniline is measured at 405 nm. The absorbance obtained in inversely porportional to the concentration of heparin in the sample.
Reagents for the assay are prepared as follows. Heparin, peptide-based constructs and protamine sulfate stocks are made in saline. Stock solutions are approximately 1 mg/mL=1 μg/μL. Factor Xa reagent and substrate reagent are reconstituted with 2.0 mL purified water. Antithrombin III (ATIII) reagent is reconstituted with 1.0 mL purified water. The assay is performed in 96 well microtiter plates. Assay components are added to the microtiter wells as follows: 12.5 μl of heparin (from 0 to 10 U/mL), 25 μl of construct or protamine sulfate, 12.5 μL of ATIII (0.5 PEU/mL), 25 μL of bovine Factor Xa (14 nKat/mL), 25 μL substrate (3 μmoles/mL). The reaction is allowed to proceed for 20 minutes and then 25 μL of 0.1 M acetic acid is added. The color reaction is quantitated on a microplate reader at 405 nm. Constructs that neutralize heparin show an increase in the absorbance at 405 nm. Protamine is used as a positive control and its activity is designated as 100%. The percent (%) heparin neutralization for each peptide construct is calculated relative to the neutralization by protamine (100%), and shown in Table IV.

[2] = Behaviour in 1 mg/ml stock solution; format: physicochemical; parameters: key: b: precipitated in 1 mg/ml stock solution; conditions: no IC50 given
[3] = system: human umbilical vein endothelial cells (HUVEC); format: cell-based
Procedure: Briefly, human umbilical vein endothelial cells (HUVEC) were cultured in EGM-2 medium (Clonetics Corp., San Diego, Calif.), harvested and plated onto a 96-well culture plate. After 24 hours of quiescence, the cells were co-cultured with various peptide-based constricts in the presence of growth factors for 72 hours to test their activity. Cell proliferation was quantitated by tritiated thymidine incorporation into DNA and was expressed in counts per minute (cpm).
Details of the experimental procedures were as follows: HUVEC cells were cultured in EGM-2 media from Clonetics Corp., a subsidiary of BioWhittaker, Inc., San Diego, Calif. [EGM-2 is Endothelial Cell Basal Medium-2 (EMB-2) supplemented with growth factors (hFGF-B, VEGF, IGF-1, hEGF) ascorbic acid, heparin, GA-1000 and 2% FBS), in T75 flasks until confluent (˜4-7 days). Cells were harvested by trypsinizing the cells using 0.025% trypsin/EDTA for 5 minutes. To stop the reaction, 2-5% FBS was added. The cells were centrifuged and washed 3 times using Hank's Balanced Salt Solution (HBSS) or Dulbecco's Phosphate Buffered Saline D-PBS. The pellet was then resuspended in EBM-2 supplemented with 0.1% FBS and GA-1000 was used. The cells were counted and a cell suspension was prepared at 2×10^5/mL in EBM-2 with 0.1% FBS; cells were dispensed into a 96-well flat bottomed culture plate at 0.1 mL/well (total: ˜20,000 cells/well in 0.1% FBS-EBM-2). Incubation continued at 37° C. in 5% CO2 for 20-24 hours. The next day peptide-based constructs were prepared for testing in a 96 well plate. The supernatant was aspirated from the cell-well, replaced with EBM-2 or the testing reagent at 20 μL/well. Then, 180 μL/well of 1.12% FBS-GFS were added to make a final concentration of 1% FBS-GFS in EBM-2. This aspiration and addition was done well-by-well. ^3H-thymidine (100 μCi/mL) was added at 10 μL/well (1 μCi/well, final). Incubation continued at 37° C., 5% CO2 for 72 hours. To harvest the plate, the supernatant was aspirated off from the cell-well and then 75 μL-100 μL/well of 0.025% trypsin-EDTA was added. After incubation for 8-10 minutes at room temperature in the hood, the cells were checked and 100 μL/well of 2-5% FBS-PBS was added to stop the reaction. The plate was then harvested, dried and counted using an Inotech cell harvester (Inotech Biosystems, INB-384, Sample Processing and Filter Counting System, Lansing, Mich.).

[4] = system: bFGF-induced angiogenesis; test: In vivo Matrigel angiogenesis assay (hemoglobin content of excised gel); conditions: 10 μg peptide construct per gel; hemoglobin of gel excised ten days after s.c. injection; C57BL/6J mice
Procedure: For these experiments, peptide-based constructs according to the invention were assayed for their ability to inhibit heparin-induced angiogenesis in vivo in mice. Basement membrane matrix (Matrigel®, Becton Dickinson Labware, Mountain View, Calif.) was thawed and maintained at 4° C. and angiogenic factors were added to the gel in the liquid state generally as described in Passaniti et al., 1992, Lab. Invest. 67: 519-528. Heparin sodium (Sigma, St. Louis, Mo.) was dissolved in sterile PBS to various concentrations ranging from 1,250-10,000 U/mL, and used in these experiments at 8,000 U/mL. Human recombinant basic fibroblast growth factor (bFGF; Sigma) was reconstituted into 1. % BSA in PBS to 25 μg/mL. A volume of 2.5 μL dissolved heparin solution and 4.0 μL recombinant bFGF were added to 0.5 mL Matrigel® mixture per mouse injection. Peptide-based constructs were added to this Matrigel® mixture at varying concentrations ranging from 0.5 to 50 μg/mL (final concentration) in 10 μL/0.5 mL Matrigel® aliquot per experimental animal. Ten μL sterile PBS was substituted for peptide-based constructs in Matrigel® aliquots injected into control animals.
Female C57BL/6J mice (Jackson Laboratory, Bar Barbor, Me.) at 6-8 weeks of age (maintained under NIH guidelines) were injected subcutaneously down the dorsal midline with 0.5 mL aliquots of Matrigel® prepared as described above. Ten days after injection, the Matrigel® gels were excised and placed in Drabkin's reagent (Sigma). Total protein and hemoglobin content can be determined for the gels stored in Drabkin's reagent after mechanical homogenization of the gels. Hemoglobin concentration was measured using Sigma Procedure #525 and reagents supplied by Sigma (St. Louis, Mo.) to be used with this procedure. If desired, total protein levels are determined using a microplate assay that is commercially embodied in a kit (DC Protein Assay, Bio-Rad, Richmond, Calif.).
Gels to be used for histological staining are formalin-fixed immediately after excision from the animals rather than being placed in Drabkin's reagent. Formalin-fixed gels are embedded in Tissue-Tek O.C.T. compound (Miles, Inc., Elkhart, Ind.) for frozen sectioning. Slides of frozen sections are stained with hematoxylin and eosin (as described by Humason, 1979, Animal Tissue Techniques, 4th Ed. W.H. Feeman & Co., San Francisco, Calif., Ch. 9, pp. 111-131). The effect of peptides are detected by microscopic examination of frozen stained sections for inhibition of angiogenesis relative to Matrigel® gel slices prepared without added peptides. The extent of angiogenesis inhibition is quantitated using the normalized amounts of hemoglobin found in BPI peptide-containing gel slices.
Data are presented as the means of triplicate determinations of hemoglobin concentrations from the excised gel (ISEM) with ten mice per group.

LPS = test: RAW cell assay of LPS neutralization; format: cell-based
[5] = system: E. coli (J5 and 0111 B4), Staphylococcus aureus and Candida albicans; test: Broth and/or radial diffusion antimicrobial assays; format: cell-based
Description: Assays useful for testing a variety of biological activities of BPI protein products, including BPI-derived peptides, are described in co-owned U.S. Pat. Nos. 5,733,872; 5,763,567; 5,652,332; and 5,856,438 and corresponding PCT Publication Nos. WO 94/20532 (PCT/US94/02465) and WO 95/19372 (PCT/US94/10427) and U.S. Pat. No. 5,858,974 and corresponding PCT Publications Nos. WO 96/08509 (PCT/US95/09262) and WO 97/04008 (PCT/US96/03845), incorporated herein by reference. These activities include antimicrobial (including antibacterial and antifungal), LPS binding, LPS neutralization and additional assays of heparin binding as well as heparin neutralization.

[6] = system: retinal endothelial cells; test: Retinal endothelial cell growth stimulated by VEGF (DNA content); format: cell-based, bovine; conditions: 5 μg/mL and 15 μg/mL
Procedure: In these experiments, peptide-based constructs are tested for their activity on the action of VEGF, bFGF, IGF-1 and conditioned media (hypoxia and hyperglycemia) on the in vitro growth and migration of retinal pigmented epithelial cells (RPE), retinal microvessel pericytes, and retinal endothelial cells. Effects are evaluated on gene expression under hypoxic or […] conditions. In additional experiments, the effects of such constructs are characterized in vivo on the neovascular responses to hyperoxia in the retina of the neonatal mouse.
For the in vitro culture experiments, retinal microvessel pericytes, retinal endothelial cells, and retinal pigmented epithelial cells (RPE) are cultured from bovine retina. Dose responses and time course for growth and migration as stimulated by VEGF, bFGF, and IGF-1 are performed. For example, retinal endothelial cell growth as stimulated by VEGF was inhibited with 5 μg/mL and 15 μg/mL XMP.679 as measured by DNA content (ng/cell well). […] When the dose responses of these growth factors and conditioned media are determined, the effect of peptide-based constructs independently, and in combination with the growth factors described above, are tested in growth and migration assays.

## 2-biphenylenecarbonyl-k-l-f-r-(naph-a)-q-a-k ({2‑biphenylenecarbonyl}-[dK][dL][dF][dR][dNal][dQ][dA][dK]; not fully specified; printed as 2-biphenylenecarbonyl-k-l-f-r-(naph-a)-q-a-k) [XMP.699]
[1]
  Assay A: percent heparin neutralization relative to protamine (100%): 45%
  Assay B: percent heparin neutralization relative to protamine (100%): 23%
[2]
  precipitated in 1 mg/ml stock solution: b

## 2-naphthylacetyl-k-l-f-r-(naph-a)-q-a-k ({Acetyl(2-naphthyl)}-[dK][dL][dF][dR][dNal][dQ][dA][dK]; not fully specified; printed as 2-naphthylacetyl-k-l-f-r-(naph-a)-q-a-k) [XMP.666]
[1]
  Assay A: percent heparin neutralization relative to protamine (100%): 39%
  Assay B: percent heparin neutralization relative to protamine (100%): 18%
[2]
  precipitated in 1 mg/ml stock solution: b

## CC[C@@H](C)[C@@H](NC(=O)[C@@H](CO)NC(=O)CNC(=O)[C@@H](CCCCN)NC(=O)[C@@H](Cc1cccc2ccccc12)NC(=O)[C@@H](CCCCN)NC(=O)[C@@H](C)NC(=O)[C@@H](CCC(N)=O)NC(=O)[C@@H](Cc1cccc2ccccc12)NC(=O)[C@@H](CCCNC(=N)N)NC(=O)[C@@H](Cc1ccccc1)NC(=O)[C@@H](CC(C)C)NC(=O)[C@H](N)CCCCN)C(=O)N[C@H](CCCCN)C(N)=O [XMP.624, k-l-f-r-(naph-a)-q-a-k-(naph-a)-k-g-s-i-k] (H-[dK][dL][dF][dR][d1Nal][dQ][dA][dK][d1Nal][dK]G[dS][dI][dK]-NH2)
[1]
  Assay A: percent heparin neutralization relative to protamine (100%): 131%
  Assay B: percent heparin neutralization relative to protamine (100%): 94%
[3]; HUVEC proliferation, purified constructs, said to be comparable to Table II (μg/mL)
  IC50 values, additional assays: 4.9 ±0.5
[4]
  % Inhibition: 51.9%
LPS
  LPS neutralization activity: showed activity

## CC(C)C[C@@H](NC(=O)[C@H](N)CCCCN)C(=O)N[C@H](Cc1ccccc1)C(=O)N[C@H](CCCCN)C(=O)N[C@H](Cc1cccc2ccccc12)C(=O)N[C@H](CCC(N)=O)C(=O)N[C@H](C)C(=O)N[C@H](CCCCN)C(=O)N[C@H](Cc1cccc2ccccc12)C(=O)N[C@H](CCCCN)C(=O)NCC(N)=O [XMP.679, k-l-f-k-(naph-a)-q-a-k-(naph-a)-k-g] (H-[dK][dL][dF][dK][d1Nal][dQ][dA][dK][d1Nal][dK]G-NH2; N-terminus assumed)
[1]
  Assay A: percent heparin neutralization relative to protamine (100%): 96%
  Assay B: percent heparin neutralization relative to protamine (100%): 94%
[3]; 72 h
  IC50: 6.3 ± 0.9 µg/mL (≈ 4.37 µM)
[5]
  antimicrobial activity: highest antimicrobial activities
[6]
  cell growth by DNA content in treated VEGF-stimulated cells versus unstimulated cells: comparable with that of cells not stimulated by VEGF
  retinal endothelial cell growth as stimulated by VEGF, measured by DNA content (ng/cell well): inhibited
